For 13 molecules, IC50 results are on record in ChEMBL document CHEMBL1136026, “4,4'-Benzophenone-O,O'-disulfamate: a potent inhibitor of steroid sulfatase” (Bioorg Med Chem Lett, 2002).

The target of this assay is T1, Steryl-sulfatase (Homo sapiens, UniProt P08842).
T1 sequence (P08842 whole entry): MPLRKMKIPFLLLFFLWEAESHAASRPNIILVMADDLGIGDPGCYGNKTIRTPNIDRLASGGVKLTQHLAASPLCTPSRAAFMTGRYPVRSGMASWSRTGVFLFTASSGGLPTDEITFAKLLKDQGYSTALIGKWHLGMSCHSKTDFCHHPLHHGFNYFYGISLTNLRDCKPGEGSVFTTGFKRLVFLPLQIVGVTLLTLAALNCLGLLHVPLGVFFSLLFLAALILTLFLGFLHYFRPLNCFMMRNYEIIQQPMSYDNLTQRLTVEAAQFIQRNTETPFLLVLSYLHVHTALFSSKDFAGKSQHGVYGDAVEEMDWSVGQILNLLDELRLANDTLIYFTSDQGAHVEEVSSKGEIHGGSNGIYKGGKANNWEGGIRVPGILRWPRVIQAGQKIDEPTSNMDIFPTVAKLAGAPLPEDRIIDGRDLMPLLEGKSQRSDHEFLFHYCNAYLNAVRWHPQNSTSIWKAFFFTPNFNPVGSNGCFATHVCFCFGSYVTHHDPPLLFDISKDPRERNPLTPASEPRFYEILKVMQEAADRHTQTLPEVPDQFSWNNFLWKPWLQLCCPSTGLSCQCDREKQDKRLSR
Kind of assay: Inhibition of human steroid sulfatase compared to EMATE.

On to `NS(=O)(=O)Oc1ccc(C(=O)c2ccccc2)cc1`, for which the IC50 amounted to 5.1 µM.

On to `COc1cccc(C(=O)c2cccc(OS(N)(=O)=O)c2)c1`, for which the IC50 was 7.1 µM. This IC50 and that of the molecule before are within 1.5-fold of each other.

In turn, `COc1ccc(C(=O)c2cccc(OS(N)(=O)=O)c2)cc1` returned an IC50 of 6.9 µM. The IC50 values of the last two molecules are within 1.5-fold of each other.

Regarding `COc1cccc(C(=O)c2ccc(OS(N)(=O)=O)cc2)c1`, the IC50 was 5.2 µM. This IC50 and that of the molecule before are within 1.5-fold of each other.

Regarding `NS(=O)(=O)Oc1cccc(C(=O)c2cccc(O)c2)c1`, the IC50 came to 6.9 µM.

`NS(=O)(=O)Oc1cccc(C(=O)c2ccc(O)cc2)c1` came in with a concentration for half-maximal inhibition (IC50) of 5 µM.

Turning to `NS(=O)(=O)Oc1cccc(C(=O)c2ccccc2)c1`, the IC50 came out at 5.7 µM. This IC50 and that of the molecule before are within 1.5-fold of each other.

The molecule `NS(=O)(=O)Oc1cccc(C(=O)c2cccc(OS(N)(=O)=O)c2)c1` gave an IC50 of 3.2 µM.

Consider `NS(=O)(=O)Oc1ccc(C(=O)c2cccc(OS(N)(=O)=O)c2)cc1`, for which the IC50 came out at 0.78 µM.

`NS(=O)(=O)Oc1ccc(C(=O)c2ccccc2O)cc1`: it took 4.6 µM to reach half-maximal inhibition (IC50). This IC50 is about 5.9-fold higher than that of the molecule before.

With `COc1ccccc1C(=O)c1ccc(OS(N)(=O)=O)cc1`, the IC50 came to 4.8 µM. This IC50 and that of the molecule before are within 1.5-fold of each other.

Molecule `NS(=O)(=O)Oc1ccc(C(=O)c2ccc(OS(N)(=O)=O)cc2)cc1` had an IC50 of 0.19 µM. Against the preceding molecule, the IC50 is about 25-fold lower.

The molecule `C[C@]12CC[C@@H]3c4ccc(OS(N)(=O)=O)cc4CC[C@H]3[C@@H]1CCC2=O` [EMATE] gave an IC50 of 0.056 µM.

Usually IC50 stands for the concentration at which inhibition is half-maximal.
